Entries after “also recorded” stand apart in the source; their conditions may differ.
Tests used:
[1] = system: parental and CARM1 knockout A1847 cells, OVCAR10 cells; experiment: Apoptosis markers (Annexin V, cleaved caspase 3, cleaved PARP); assay type: cell-based, Human; settings: 10 μM; 7 days; CARM1-dependent manner
Procedure: FIG. 37 illustrates control parental and CARM1 knockout A1847 cells were treated with 10 μM GSK126 or vehicle for 7 days. Percentage of Annexin V positive apoptotic cells was quantified. *p<0.001 and #p>0.05.
FIG. 38 illustrates levels of cleaved caspase 3 and cleaved PARP in control parental and CARM1 knockout A1847 cells treated with 10 μM GSK126 for 7 days. Expression of β-actin was used as a loading control.
FIG. 39A illustrates the expression of apoptosis markers cleaved in CARM1 high OVCAR10 cells as a result of treatment with GSK126. CARM1 high OVCAR10 cells were treated with 10 μM GSK 126 or vehicle control for 7 days. The expression of apoptosis markers cleaved caspase 3 and cleaved PARP were determined by immunoblot. Expression of β-actin was used as a loading control.
Phosphatidylserine externalization was detected using an Annexin V staining kit (Millipore) following the manufacturer's instructions. Annexin V-positive cells were detected using the Guava System and analyzed with the Guava Nexin software Module (Millipore).

[2] = system: tumors formed by CARM1 knockout A1847 cells; experiment: Subcutaneous xenograft, CARM1 knockout A1847 cells; assay type: in vivo, NSG mice; settings: 50 mg/kg daily
Procedure: (§1) FIGS. 73 to 75 illustrate that EZH2 inhibition suppressed the growth of CARM1-expressing ovarian tumors in vivo. FIG. 73 illustrates images of tumors dissected from control or GSK126 treated mice. CARM1-high A1847 cells were injected subcutaneously into immunocompromised NSG mice (n=5/group). Tumors were allowed to establish for one week before the mice were randomized into two different treatment groups. Mice were treated with vehicle control or GSK126 (50 mg/kg daily) for an additional three weeks. At the end of treatment, the mice were euthanized. Bar=1 cm. FIG. 74 illustrates a difference in tumor size measured as a surrogate for tumor burden from the control and GSK 126 treated mice at the indicated time point. FIG. 75 illustrates a difference in tumor weight measured as a surrogate for tumor burden from control and GSK 126-treated mice. The mice were injected with CARM1 knockout A1847 cells.
(§2) The protocols were approved by the Institutional Animal Care and Use Committee (IACUC). 5×10^6 control A1847 or A1847 CARM1 knockout cells were unilaterally injected subcutaneously into 6-8-week old female immunocompromised NSG mice (n=5 per group). […] Tumor size was measured every 3 days for 3 weeks. At end of the experiments, tumors were surgically dissected and tumor burden was calculated based on tumor weight.

[3] = system: HOSE or FTE cells; experiment: Colony formation assay, normal HOSE and FTE cells; assay type: cell-based, Human; settings: 10 μM
Procedure: FIG. 33 illustrates relative growth of the indicated HOSE, FTE, and EOC cancer cell lines with high or low CARM1 expression treated with 10 μM GSK126 or vehicle in a colony formation assay as determined by NIH Image J quantification.
500 to 5,000 cell were plated into a 24 well tissue culture plate and treated with the indicated compounds. Medium was changed every three days with appropriate drug doses for 12 days or until control wells became confluent. Colonies were washed twice with PBS and fixed with 10% methanol and 10% acetic acid in distilled water. Fixed colonies were stained with 0.005% crystal violet. Integrated density was measured using NIH ImageJ software.

[4] = system: CARM1-expressing tumors; experiment: IHC and qRT-PCR of dissected CARM1-expressing tumors; assay type: in vivo, NSG mice; settings: IHC
Procedure: FIG. 79 illustrates immunohistochemical analysis for serial sections of tumors dissected from the indicated treatment groups where the tumor sections were stained for H3K27Me3, EZH2, cleaved caspase 3, and Ki67. Scale bar=50 μm.
FIG. 80 illustrates histological scoring (H-score) of the indicated proteins that was calculated for 3 separate fields from 5 tumors from 5 individual mice from each of the indicated groups.
FIG. 81 illustrates the expression of the indicated EZH2/BAF155 target genes that was determined by qRT-PCR in the tumors dissected from the indicated treatment groups.

[5] = system: CARM1-expressing A1847 tumors; experiment: Subcutaneous xenograft, CARM1-expressing A1847 cells; assay type: in vivo, NSG mice; settings: 50 mg/kg daily i.p., three weeks
Procedure: as §1, §2

[6] = clinical trials for hematopoietic malignancies; cited from earlier work
[7] = system: CARM1-expressing A1847 tumors; experiment: Intrabursal orthotopic xenograft, CARM1-expressing A1847 cells; assay type: in vivo, NSG mice; settings: 50 mg/kg daily i.p., three weeks
Procedure: FIG. 76 illustrates images of reproductive tracks with tumors from control or GSK126 treated mice. CARM1-high A1847 ovarian cancer cells were unilaterally injected into the ovarian bursa sac of immunocompromised mice (n=5/group). Tumors were allowed to establish for one week before the mice were randomized into two different treatment groups. Mice were treated with vehicle control or GSK126 (50 mg/kg daily) for an additional three weeks. At the end of treatment, the mice were euthanized.
FIG. 77 illustrates tumor weights for the tumors described in FIG. 76. Tumor weight was measured as a surrogate for tumor burden from the control and GSK126 treated mice.
FIG. 78 illustrates the percent survival for the animals treated in FIG. 76. After stopping treatment, the mice from the indicated groups were followed for survival. […] P-value was calculated by log-rank test.
The protocols were approved by the Institutional Animal Care and Use Committee (IACUC). For in vivo experiments, the sample size of 5 mice per group was determined based on the data shown from in vitro experiments. […] At the end of the experiments, tumors were surgically dissected and tumor burden was calculated based on tumor weight. For survival experiments, after stopping the treatment, the mice were followed for mortality or when the tumor burden reached 10% of body weight as determined by The Wistar Institute IACUC guideline.

Compound: CC[C@H](C)n1cc(C)c2c(C(=O)NCc3c(C)cc(C)[nH]c3=O)cc(-c3ccc(N4CCNCC4)nc3)cc21 [GSK126, (S)-1-(sec-butyl)-N-((4,6-dimethyl-2-oxo-1,2-dihydropyridin-3-yl)methyl)-3-methyl-6-(6-(piperazin-1-yl)pyridin-3-yl)-1H-indole-4-carboxamide]
- markers of apoptosis [1]: markers of apoptosis were induced
- tumor growth [2]: failed to inhibit the growth
- growth of normal cells [3]: did not affect the growth of either HOSE or FTE cells
- H3K27Me3 staining [4]: H3K27Me3 staining was decreased
- tumor growth [5]: significantly inhibited the growth of CARM1-expressing tumors
- tolerability in clinical trials [6]: used safely in clinical trials; also recorded: well-tolerated with limited toxicity
- tumor growth (tumor weight) [7]: significantly inhibited

— patent US12629364B2, “Methods of treating cancers overexpressing CARM1 with EZH2 inhibitors and platinum-based antineoplastic drugs” (The Wistar Institute of Anatomy and Biology, priority 2016, dated 2026)
